# Earlier results, collected in patent publication US20030229057A1, “Continuous sulfatase inhibiting progestogen hormone replacement therapy” (priority 2002, published 2003).
# Settings: humans
compound,measurement,value
C#C[C@]1(OC(C)=O)CC[C@H]2[C@@H]3CCC4=CC(=NO)CC[C@@H]4[C@H]3CC[C@@]21CC (mixture of isomers) [norgestimate],norgestimate being converted to norelgestromin in vivo,≥ 80%
